≈ marks a conversion by molar mass, not a printed value. Where two headings read alike, the source gives them in different places. Where a SMILES comes first, the peptide text is derived from it. [ ]: non-standard residue; d: D form.
What was measured:
CREC E2 = assay: MIC, broth dilution; format: cell-based, carbapenem-resistant E. coli; details: read-out: Minimal Inhibitory Concentration (MIC)
In short: (§1)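 Bacteria were first grown overnight at 37 °C in Mueller–Hinton media. Broth dilution followed, and after 16 h of incubation growth was measured at 600 nm. Resistant strains came from infected patients, and all CRAB isolates harbour OXA-23.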

CREC E1 = assay: MIC, broth dilution; format: cell-based, carbapenem-resistant E. coli; details: read-out: Minimal Inhibitory Concentration (MIC)
In short: as §1

E. coli = format: cell-based, Escherichia coli; details: peptide pre-incubated 6 h at 37 °C
Method: All the peptides at their MICs were pre-incubated with proteolytic enzymes such as trypsin and α-chymotrypsin (10,000:1; peptide: enzyme ratio) for 6 h at 37 °C. Then, 100 μL of peptide-protease cocktail was added to the 100 µL bacterial suspension (E. coli, A. baumannii and CRAB C0, 2 × 10^5 CFU/mL) and further incubated for 16 h at 37 °C. Bacterial suspension without peptide and protease served as negative control. The analysis was repeated at three times using independent experiments, and the degree of bacterial growth was measured at 600 nm using a microplate reader.

[1] = In vivo toxicity, serum AST, ALT, BUN; design: species or system ICR mice; details: mice, 1 and 5 mg/kg i.p., 24 h
Method: Control mice received phosphate-buffered saline only and the treatment was performed for 24 h. (B) R-Pro9-3D prolonged the survival rate of mice infected with CRAB C0. […] In sepsis model, mice (5 mice per group) were treated with R-Pro9-3D (1 mg/kg) for 1 h and the antiseptic analyses were evaluated after CRAB C0 (6 × 10^6 CFU/mouse, 16 h) infection. (C) R-Pro9-3D restricted the bacterial entry in the lung, liver, and kidneys. The corresponding organ lysates were plated onto agar plates and the total no of bacterial colonies were scored. (D) R-Pro9-3D effectively normalized the endotoxin levels in CRAB C0-infected mice. (E–G) Effect of R-Pro9-3D on serum levels of AST, ALT and BUN. (H–K) R-Pro9-3D inhibited the production of inflammatory cytokines (TNF-α and IL-6) in the serum and lung lysates of CRAB C0-infected mice, as measured by enzyme-linked immunosorbent assay (ELISA). (L) Photomicrograph show the modulatory effect of R-Pro9-3D on neutrophil infiltration in the hematoxylin and eosin (H&E)-stained lung tissues (Magnification 20×, Scale bar 100 μm). […] Values are expressed as mean ± SEM (Five mice per group). […]
The ICR mice (n = 5 per group) were intraperitoneally (i.p.) injected with R-Pro9-3D (1 mg and 5 mg/kg/day in PBS) and the serum levels of AST, ALT, and BUN levels were determined using a standard kit from Asan Pharmaceutical as described previously.

CRAB C0 outer membrane = assay: Outer membrane permeability, NPN uptake; format: cell-based, carbapenem-resistant A. baumannii
Method: The effect of peptides on the disturbance of CRAB C0 outer membrane was analyzed using 1-N-phenylnaphthylamine (NPN, Sigma-Aldrich, St. Louis, MO, USA) uptake assay, as previously described. Briefly, CRAB C0 cell suspensions were mixed with NPN (1 mM) and the background fluorescence was recorded for subtraction (excitation λ = 350 nm, emission λ = 420 nm) using RF-6000PC fluorescent spectrophotometer (Shimadzu Scientific Instruments, Kyoto, Japan). Changes in the NPN fluorescence were recorded after addition of different concentrations of peptides and values are expressed as—fluorescence intensity (A.U.).

CRAB C8 = assay: microbe, parasite or virus in culture; details: CRAB C8
In short: (§2)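 Determined via MH broth dilution with 16 h incubation and absorbance at 600 nm; inocula are from overnight 37 °C cultures.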

K. pneumoniae = assay: microbe, parasite or virus in culture; details: K. pneumoniae; 16 h, MH media
In short: as §2

CRAB C1 = assay: microbe, parasite or virus in culture; details: CRAB C1
In short: as §2

P. aeruginosa = assay: MIC, broth dilution; format: cell-based, Pseudomonas aeruginosa KCCM 11328; details: 16 h, MH media, read-out: Minimal Inhibitory Concentration (MIC)
Text: Escherichia coli KCTC 1682 was obtained from the Korean Collection for Type Cultures (KCTC) (Jeongeup-si, Korea), Acinetobacter baumannii KCCM 40203, Pseudomonas aeruginosa KCCM 11328 from the Korea Culture Center of Microorganisms (KCCM) (Seoul, Korea). Klebsiella pneumoniae NCCP 16054 were obtained from the National Culture Collection for Pathogens (NCCP) (Osong, Korea). Additionally, two carbapenem-resistant E. coli (CREC E1 and E2), 11 carbapenem-resistant A. baumannii (CRAB C0–C10) and two carbapenem-resistant K. pneumoniae (CRKP K1 and K2) were isolated from the patients, who presented symptoms and signs of infection at Korea University Anam Hospital (Seoul, Korea) (IRB registration no. 2020AN0157, 4 March 2021). CRAB C0–C10 have the OXA-23 gene with carbapenem-resistance.
The minimum inhibitory concentrations (MIC) were determined using broth dilution method. Briefly, all the mentioned bacterial strains were grown overnight at 37 °C by Muller–Hinton (MH) media. […] After 16 h incubation, the bacterial growth was read at 600 nm using a SpectraMAX microplate reader (Molecular Devices, San Jose, CA, USA).

CC[C@@H](C)[C@@H](NC(=O)[C@@H](Cc1c[nH]c2ccccc12)NC(=O)[C@@H](CCCNC(=N)N)NC(=O)[C@H](N)CCCNC(=N)N)C(=O)N[C@H](C)C(=O)N[C@H](CC(C)C)C(=O)N[C@H](Cc1c[nH]c2ccccc12)C(=O)N[C@H](CC(C)C)C(=O)N[C@H](CCCNC(=N)N)C(N)=O [R-Pro9-3D, rrwialwlr-NH2] (H-[dR][dR][dW][dI][dA][dL][dW][dL][dR]-NH2)
MIC (CREC E2): 8 µM (≈ 10.1 µg/mL)
MIC (CREC E1): 8 µM (≈ 10.1 µg/mL)
Minimal Inhibitory Concentration (MIC) (E. coli; E. coli + Trypsin): 8 µM
Minimal Inhibitory Concentration (MIC) (E. coli; E. coli + α-Chymotrypsin): 8 µM
Serum levels of AST, ALT and BUN [1]: Neither dose of R-Pro9-3D elevated the levels of these enzymes
NPN uptake (outer membrane permeabilization) (CRAB C0 outer membrane): greater NPN uptake than their L-form peptides
Minimal Inhibitory Concentration (MIC) (CRAB C8): 4 µM
Minimal Inhibitory Concentration (MIC) (K. pneumoniae): 8 µM
Minimal Inhibitory Concentration (MIC) (CRAB C1): 8 µM
MIC (P. aeruginosa): 8 µM (≈ 10.1 µg/mL)
